Data taken from patent publication US9403843B2, “Cysteine protease inhibitors and uses thereof” (The Trustees of Columbia University in the City of New York, priority 2012, dated 2016).
Like-named read-outs stand apart in the source and are kept apart here.

Experiments:
Aβ40 and Aβ42 [1] = conditions: earlier observation; cited from earlier work
[2] = biological target: Full length porcine calpain (Sus scrofa (Pig), UniProt P35750); test: Calpain inhibition kinetics studies (Suc-LLVY-AMC substrate); assay type: biochemical; conditions: for Ki: apparent equilibrium constant, read-out: K1 Calpain1; for Ki / ki Calpain1: full length Cal1; for ki Calpain1: inhibition rate; for rel Calpain1: ki/Ki calculated relative to E-64
Excerpt: (§1) Papain is representative of a family of typically lysosomal or secreted cysteine proteases, including the human cathepsins (B, C, F, H, K, L1-2, O, S, W, Z). […] Several methods have been reported in the literature for detailed kinetic analysis of the irreversible inhibition of cysteine proteases, including Cal1. […] (SEQ ID NO: 8). Using this substrate, kinetic parameters were derived using the method of Davies and co-workers, whereby “progress curves” were initially obtained measuring product formation as a function of time and fitted to y=P∞*(1−e^(−k*x)) (FIG. 7) (Cuerrier, D. et al., J Biol Chem 2007, 282, 9600-11; herein incorporated by reference in its entirety). […] Kinetic parameters (ki, KI, ki/KI) were obtained from double reciprocal plots (FIG. 7).
(§2) Full length porcine calpain (156 nM), or papain (236 pM) was added to a solution of 100 mM NaCl, 50 mM HEPES, pH 7.6, 1 mM TCEP, 30 μM Suc-LLVY-AMC (SEQ ID NO: 8) substrate, and inhibitor (0.5 to 50 μM). Calpain reactions also contained CaCl2 (1 mM and 100 mM for porcine and rat respectively). Both substrate and inhibitors were dissolved in acetonitrile/DMSO (1:1) with the exception of E-64, dissolved in water. Organic solvent remained <2% in all reactions, and most often <1%. Reactions were carried out in microtiter 96-well plates, with 150 μL per well, 30° C., and product formation was monitored over time by fluorescence (Ex/Em 346/444 nm, with 420 nm cutoff filter). Kinetic values of kobs were determined via non-linear regression using one-phase association analysis and linear plots of 1/kobs vs. 1/[I] provided kinetic constants ki and KI.

papain = papain (Carica papaya (Papaya), UniProt P00784); test: biochemical; assay type: biochemical; conditions: for ki Papain: inhibition rate; for rel Papain: ki/Ki calculated relative to E-64
Excerpt: as §1, §2

Cal1cat vs CathB = test: Competition assay for Cal1 vs CathB using the biotinylated epoxide probe; assay type: binding, rat; conditions: for blocking of active site modification by probe 27 (western blot signal): 10 min pre-treatment, then 20 min with 27
Method: Anti-biotin western blotting of Cal1cat (Lane 6) or CathB (Lane 7) after incubation with 27 show the expected immunoreactivity of the covalently modified proteins. […] Densitometric analysis, using means from triplicate immunoblots, was used to estimate the modification of each protein by 27 in the presence of inhibitors relative to control (Lane 1: ratio=1.0).
Cal1cat was used in place of the full length enzyme to avoid autocatalysis.
Cal1cat and CathB were pre-treated with inhibitors for 10 min, followed by a 20 min incubation with the biotinylated epoxide, 27, as illustrated in FIG. 4. […] A more quantitative estimate of selectivity was achieved by comparison of band intensities.
The appropriate inhibitor (5 μM) was pre-incubated in a mixture containing Cal1cat (2 μM), CathB (2 μM), TCEP (1 mM), and Ca^2+ (30 μM) for 10 min at 37° C. […] (5 μM) was then added and the mixture incubated an additional 20 min. The reaction was quenched with EDTA (10 μM) and samples were ran using 4-16% SDS PAGE gel, subsequently transferred to PVDF membrane and visualized by Pierce ECL (Enhanced chemiluminescent) western blotting substrate, intensity of each blot was calculated using densitometry software. Relative inhibition of each enzyme was calculated with respect to enzyme activity in the absence of inhibitor. Inhibitor preference to Cal1cat with respect to CathB, was calculated by dividing relative Cal1cat inhibition with relative CathB inhibition of that particular inhibitor.

Cal1cat = Cal1cat (Rattus norvegicus (Rat), UniProt P97571); test: LC-MS/MS examination of inhibitor modified Cal1cat active site; assay type: binding; conditions: for modification of the active site cysteine of Cal1cat: Cal1cat 1 μM, varying inhibitor concentration
Method: (FIG. 3A) After capping of free cysteines with iodoacetamide (IAA) and in gel digest, peptide fragments were analyzed by LC-MS/MS. (FIG. 3B) Total ion chromatograms (TIC) for the incubation of recombinant Cal1cat (5 μM) in the absence or presence of inhibitors (10 μM). A non-active site and IAA-capped peptide fragment (Rt=41.3 min) was used as an internal standard for EIC quantitation. (FIG. 3C) Active site Cys modification of Cal1cat was concentration dependent in incubation containing Cal1cat (1 μM) and vary concentrations of inhibitors.
Inhibition kinetics and x-ray crystallography support a mechanism of calpain inhibition by E-64, resulting from covalent modification of the active site Cys (Suzuki, K. et al., FEBS Letters 1983, 152, 67-70; herein incorporated by reference in its entirety). LC-MS/MS was used to support a similar mechanism for 24a. The experimental methodology is outlined in FIG. 3A. Cal1cat (5 μM) was incubated with the appropriate inhibitor (10 μM) for 30 min. The mixture was quenched with EDTA (10 μM), and run on a SDS PAGE gel. Band excision, in-gel capping office cysteines with iodoacetamide (IAA, […]), tryptic digest, and subsequent LC-MS/MS analysis afforded the chromatograms shown in FIG. 3B. […] A peptide fragment containing an IAA labeled non-active site cysteine was used as an internal standard for semi-quantitative EIC analysis of the degree of active site modification observed (FIG. 3B). It is noteworthy that although Cal1cat was employed in these studies, analysis of full length Cal1 gave an identical active site peptide fragment (TIC of control digest from Cal1cat and full length Cal1 are compared in Example 10).
The reaction was quenched with EDTA (10 μM) and reaction mixture ran on a SDS PAGE gel. The Cal1cat containing band was cut from the gel and submitted to in-gel alkylation with IAA (100 mM) for 60 min, followed by trypsin digestion. LC-MS/MS was carried out on an Agilent 6300 Ion-Trap LC/MS. […] The resulting TIC and EIC were analyzed for anticipated m/z modified peptide fragments.

APP/PS1 mice [3] = test: Behavioral rescue assays (contextual fear memory, 2-day RAWM reference memory); assay type: in vivo; conditions: 3 month old APP/PS1 mice
Excerpt: APP/PS1-vehicle: n=15; APP/PS1-67: n=6; APP/PS1-30a: n=10; WT-vehicle: n=15; WT-67=5; WT-30a: n=8, APP/PS1-33: n=11; WT-33: n=8, APP/PS1-50: n=10; WT-50: n=8. P<0.05 in all transgenic groups treated with compound compared to their respective vehicle-treated transgenics.
APP/PS1-vehicle: n=17; APP/PS1-67: n=9; APP/PS1-30a: n=10; WT-vehicle: n=18; WT-67=9; WT-30a: n=9, APP/PS1-33: n=10; WT-33: n=9, APP/PS1-50: n=11; WT-50: n=9.
The ability of compounds to rescue the defects in associative and reference memory in 3 month old APP/PS1 animals was assessed. Capability of ameliorating the defects in contextual fear memory was tested via i.p. administration (FIG. 12). In the 2-day RAWM test, daily injections of the 67, 30a, 33 and 50 from the 2nd month of age were beneficial against the loss of contextual fear memory and reference memory.
Impact of chronic treatment on against memory loss in older APP/PS1 mice (7 months of age) with a more severe plaque load was also investigated. Compounds 67, 33 and 50 were beneficial against memory impairment following chronic administration (FIG. 13).
(§3) The ability of a prodrug to rescue the defects in associative and reference memory in 3 month old APP/PS1 animals was assessed. […] Thus, the esterification seems to improve PK but it spoils PD parameters. Compound 89 ameliorates both LTP and memory in 3 month old APP/PS1 mice (FIG. 15). Daily treatment with 89 from the age of 2 months until 3 months ameliorated the defect in LTP (A) contextual fear memory (B) and reference memory (C) in APP/PS1 mice. n=10 for all groups. P<0.05 in transgenics treated with compound compared to their respective vehicle-treated transgenics.

APP/PS1 mice [4] = test: LTP in APP/PS1 mice after daily treatment; assay type: in vivo; conditions: daily treatment from 2 until 3 months
Method: P<0.05 in transgenics treated with compound compared to their respective vehicle-treated transgenics.
as §3

Aβ40 and Aβ42 [5] = test: Effect on Aβ levels in APP/PS1 mice; assay type: in vivo; conditions: compound-treated vs vehicle-treated APP/PS1 transgenics
Excerpt: Increase of brain and plasma levels of Aβ and appearance of amyloid plaques is an important feature of AD.

full-length human Cal1 [6] = biological target: T1, full-length human Cal1 (Homo sapiens (Human), UniProt P07384); test: Calpain inhibition FRET assay; assay type: biochemical; conditions: Table 2; approximate IC50; read-out: Cal I IC50
Cal I = test: Relative selectivity for Cal I (E64 = 1.0), Table 2; assay type: biochemical; conditions: relative to E64 = 1.0
primary neurons = test: LD50 in primary neurons; assay type: cell-based; conditions: YES = LD50 ≧ 50 μM in primary neurons
full-length human Cal1 [7] = biological target: T1, full-length human Cal1; test: Calpain inhibition FRET assay; assay type: biochemical; conditions: Table 3, 20 min incubation, FRET substrate
[8] = system: Aβ-induced LTP impairment; test: LTP rescue test; conditions: LTP rescue, benchmark
Method: Residual levels of potentiation were averaged during the last 5 min of LTP.

[9] = mean ± S.D. of triplicate experiments

Cal1cat, sequence (P97571 other isoform, or with tags, fused parts or gaps): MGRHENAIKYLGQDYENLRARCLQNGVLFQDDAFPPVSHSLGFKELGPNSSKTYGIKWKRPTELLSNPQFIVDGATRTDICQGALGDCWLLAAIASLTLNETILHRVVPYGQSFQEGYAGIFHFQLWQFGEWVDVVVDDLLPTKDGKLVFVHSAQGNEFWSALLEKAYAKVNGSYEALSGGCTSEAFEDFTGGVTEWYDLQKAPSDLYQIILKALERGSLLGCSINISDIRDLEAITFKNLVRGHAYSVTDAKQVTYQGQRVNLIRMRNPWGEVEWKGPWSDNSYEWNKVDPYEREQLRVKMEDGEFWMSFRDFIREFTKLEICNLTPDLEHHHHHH
Full length porcine calpain, sequence (P35750 whole entry): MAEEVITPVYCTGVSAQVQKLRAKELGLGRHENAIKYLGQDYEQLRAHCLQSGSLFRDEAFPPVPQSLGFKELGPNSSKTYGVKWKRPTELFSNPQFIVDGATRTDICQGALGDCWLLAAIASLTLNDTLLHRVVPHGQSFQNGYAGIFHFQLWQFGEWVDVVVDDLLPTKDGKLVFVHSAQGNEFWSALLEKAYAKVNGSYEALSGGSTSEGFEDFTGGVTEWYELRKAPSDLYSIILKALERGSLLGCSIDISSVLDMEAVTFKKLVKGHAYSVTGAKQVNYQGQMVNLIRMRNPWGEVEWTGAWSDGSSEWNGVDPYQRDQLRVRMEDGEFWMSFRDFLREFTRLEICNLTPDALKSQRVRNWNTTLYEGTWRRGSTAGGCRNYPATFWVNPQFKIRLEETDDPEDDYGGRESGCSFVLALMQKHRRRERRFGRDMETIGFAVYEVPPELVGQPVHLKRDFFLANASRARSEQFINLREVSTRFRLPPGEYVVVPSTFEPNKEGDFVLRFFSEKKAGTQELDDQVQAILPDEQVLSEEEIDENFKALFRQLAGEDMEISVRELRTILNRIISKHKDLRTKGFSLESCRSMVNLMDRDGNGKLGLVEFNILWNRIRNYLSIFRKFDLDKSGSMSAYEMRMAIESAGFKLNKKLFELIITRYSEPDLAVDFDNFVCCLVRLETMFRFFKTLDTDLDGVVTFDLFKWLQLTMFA
Full length porcine calpain, sequence (P04574 whole entry partner): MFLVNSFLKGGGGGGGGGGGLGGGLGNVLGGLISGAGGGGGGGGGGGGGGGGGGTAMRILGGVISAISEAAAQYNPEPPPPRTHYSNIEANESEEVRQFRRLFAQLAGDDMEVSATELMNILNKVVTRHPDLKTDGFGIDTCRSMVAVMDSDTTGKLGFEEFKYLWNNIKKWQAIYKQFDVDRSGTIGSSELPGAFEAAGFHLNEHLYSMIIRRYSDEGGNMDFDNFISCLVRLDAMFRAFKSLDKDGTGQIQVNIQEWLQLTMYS
papain, sequence (P00784 134-345): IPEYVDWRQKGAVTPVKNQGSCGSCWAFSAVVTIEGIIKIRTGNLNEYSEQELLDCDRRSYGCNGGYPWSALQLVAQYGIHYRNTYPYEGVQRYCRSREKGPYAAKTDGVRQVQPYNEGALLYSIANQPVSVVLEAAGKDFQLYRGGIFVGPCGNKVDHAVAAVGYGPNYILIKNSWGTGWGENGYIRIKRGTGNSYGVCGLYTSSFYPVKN
T1 sequence (P07384 whole entry): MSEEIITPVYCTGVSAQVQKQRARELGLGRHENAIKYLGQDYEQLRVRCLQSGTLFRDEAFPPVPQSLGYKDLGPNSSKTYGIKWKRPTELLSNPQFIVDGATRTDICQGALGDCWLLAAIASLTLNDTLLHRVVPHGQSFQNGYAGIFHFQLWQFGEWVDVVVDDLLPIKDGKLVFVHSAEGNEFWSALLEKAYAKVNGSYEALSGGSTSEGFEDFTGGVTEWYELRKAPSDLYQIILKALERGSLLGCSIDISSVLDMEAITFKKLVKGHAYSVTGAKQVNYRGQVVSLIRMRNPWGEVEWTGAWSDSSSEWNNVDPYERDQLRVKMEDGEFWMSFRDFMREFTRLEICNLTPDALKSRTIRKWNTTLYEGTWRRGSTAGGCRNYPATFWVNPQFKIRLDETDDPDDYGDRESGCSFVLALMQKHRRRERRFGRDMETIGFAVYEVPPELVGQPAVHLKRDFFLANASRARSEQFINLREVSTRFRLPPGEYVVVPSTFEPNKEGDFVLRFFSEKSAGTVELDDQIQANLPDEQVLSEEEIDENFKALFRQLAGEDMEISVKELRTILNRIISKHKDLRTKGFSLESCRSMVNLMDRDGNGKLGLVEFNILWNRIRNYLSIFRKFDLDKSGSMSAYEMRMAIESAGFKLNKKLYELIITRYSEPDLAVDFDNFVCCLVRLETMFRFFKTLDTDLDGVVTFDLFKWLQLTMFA
T1 sequence (P04632 whole entry partner): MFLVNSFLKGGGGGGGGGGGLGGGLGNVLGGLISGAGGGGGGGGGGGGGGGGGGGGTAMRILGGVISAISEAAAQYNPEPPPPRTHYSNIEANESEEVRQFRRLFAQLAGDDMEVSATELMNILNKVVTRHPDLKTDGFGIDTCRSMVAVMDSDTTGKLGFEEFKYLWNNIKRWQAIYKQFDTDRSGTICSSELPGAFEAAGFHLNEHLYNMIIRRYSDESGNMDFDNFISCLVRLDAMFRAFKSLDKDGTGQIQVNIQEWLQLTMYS

Compound | Aβ levels and plaque load (Aβ40 and Aβ42 [1]) | Ki [2] [nM] | ki Calpain1 [2] [s⁻¹] | rel Calpain1 [2] | ki Papain (papain) [s⁻¹] | rel Papain (papain) | blocking of active site modification by probe 27 (western blot signal) (Cal1cat vs CathB) | modification of the active site cysteine of Cal1cat (Cal1cat) | further results
CC(C)C[C@H](NS(=O)(=O)c1ccccc1)C(=O)N[C@@H](C(C)C)[C@@H](O)c1c(-c2ccccc2)c1=O [BDA-410] | do not have any effect |  |  |  |  |  |  |  | 
CC(C)C[C@H](NC(=O)[C@H]1O[C@@H]1C(=O)O)C(=O)Nc1nc(-c2ccc(F)cc2)cs1 [Compound 24a, (2S,3S)-3-((S)-1-(4-(4-fluorophenyl)thiazol-2-ylamino)-4-methyl-1-oxopentan-2-ylcarbamoyl)oxirane-2-carboxylic acid] |  | 6000 | 0.16 | 0.91 | 17.1 | 1.9 | substantially reduced signals from both enzymes | concentration dependent modification | Ki (papain; apparent equilibrium constant, read-out: K1 Papain): 1600 nM; active site modification on co-incubation of E-64 and 24a (EIC peak areas) (Cal1cat; Cal1cat with E-64 and 24a, both 1 μM): greater modification
CCOC(=O)[C@@H]1O[C@H]1C(=O)N[C@@H](Cc1cscn1)C(=O)Nc1nc(-c2ccc(F)cc2)cs1 [Compound 89] |  |  |  |  |  |  |  |  | reference memory (APP/PS1 mice [3]; 2-day RAWM, daily from 2 months): ameliorated; contextual fear memory (APP/PS1 mice [3]; daily i.p. from 2 months): ameliorated; defect in LTP (APP/PS1 mice [4]): ameliorated; Aβ40 and Aβ42 levels in hippocampi (Aβ40 and Aβ42 [5]): no difference was detected
CC(C)C[C@H](NC(=O)C1O[C@@H]1C(=O)O)C(=O)NCCCCNC(=N)N (stereo partly drawn) [Compound E64, L-trans-epoxysuccinyl-leucylamido(4-guanidino)butane, reference compound] | do not have any effect | 4000 | 0.12 | 1 | 28.6 | 1 | substantial loss of signal | concentration dependent modification | IC50 (full-length human Cal1 [6]): 100 nM; Relative selectivity for Cal I E64 = 1.0 (Cal I): 1.0; LD50 ≧ 50 μM primary neurons (primary neurons): YES; Relative Selectivity ([2]; Cal1 over papain, ki/Ki relative to E-64 set at 1.0): 1; 10^−4 × ki/Ki Calpain1 [2, 9]: 3.02 ± 0.15; Ki (papain): 5100 nM; 10^−5 × ki/Ki Papain (papain; [9]): 56.3 ± 5.2; selectivity for Cal1cat (ratio of Cal1cat versus CathB band intensities) (Cal1cat vs CathB; ratio for probe 27 alone set as 1.0, inhibitor 5 μM): 1.5; IC50 (full-length human Cal1 [7]): 100 nM; ED50 [8]: 650 nM
